# Measured values published in publication PMC7830597, “Derivatives of Tenuazonic Acid as Potential New Multi-Target Anti-Alzheimer’s Disease Agents” (Biomolecules, 2021).
# Tests used:
# [1] = target: AChE of electroforus electricus (electric eel) (Electrophorus electricus, UniProt O42275); test: biochemical; conditions: AChE from electric eel; mean of three independent experiments ± SEM; read-out: eeAChEi IC50
# Experimental: All new racemic compounds were tested as acetylcholinesterase inhibitors via an in vitro assay, following a modification of Ellman’s method in three independent experiments, using tacrine as a reference compound. […] Enzyme inhibition assays were performed using an adaptation of Ellman’s method. The readings were made in a spectrophotometer Perkin-Elmer Lambda 35 UV-Vis. Enzyme activity is measured by following the increase in yellow color produced from thiocholine when it reacts with dithiobisnitrobenzoate ion (DTNB). DTNB solution was obtained dissolving the reagent in HEPES buffer with salts, namely NaCl (50 mM) and MgCl2 (20 mM), obtaining a 3 mM solution. The enzyme AChE of electroforus electricus (electric eel) stock (500 U) was dissolved in TRIS 50 mM, pH 8.0, being posteriorly diluted to assay concentrations (5 U), obtaining an aliquot of 1 mL. The enzyme substrate used was acetylthiocholine iodide (AThCh, 16 mM), which was prepared with deionized water. The compounds tested were diluted in MeOH or DMSO (1 mg/mL, 2–7 × 10^−3 M), with further dilution, and five different concentrations were used for each compound, obtaining different percentages of AChE inhibition. The assay consists in the addition of HEPES (50 mM, pH = 8), inhibitor, AChE and MeOH in a 1 mL cuvette. The mixture was left to incubate for 15 min and, after that, AThCh and DTNB were added. The enzymatic reaction was followed through the measurements of absorbencies at 405 nm (Perkin Elmer Lambda 35 spectrophotometer equipped with a temperature programmer PTP 1þ1 Peltier System, using thermostated (T = 25.0 ± 0.1 °C) 1 cm path length cells) during 5 min. A blank solution containing all the components except the enzyme, that was substituted for equal volume of HEPES, was used. A control reaction was used using MeOH instead of the new compounds and was considered the reaction corresponding to 100% enzymatic activity. Each assay was performed in quintupled.
# [2] = Radical scavenging activity, DPPH method; conditions: DPPH assay; mean ± SEM of 3 independent experiments
# Experimental: Therefore, they were assayed for radical scavenging activity using the DPPH method.
# The final volume of the assay was 3.5 mL, corrected with MeOH to obtain different concentrations of our compound in each assay. The control solution was composed of MeOH and DPPH [14]. After 30 min, at RT, protected from light, the absorbance was measured at 517 nm (Perkin Elmer Lambda 35 spectrophotometer equipped with a temperature programmer PTP 1þ1 Peltier System, using thermostated (T¼25.0 ± 0.1 °C) 1 cm path length cells), against a blank solution (MeOH). The assays were performed in triplicate, in which the EC50 was obtained through the graphical representation of the %AA vs. the inhibitor concentration.
# [3] = system: SH-SY5Y human neuroblastoma cells; test: Dose-response cell viability screening, MTT reduction assay; type: cell-based; conditions: for cytotoxicity on SH-SY5Y cell line: 10 μM to 100 μM, 24 h, at the active concentrations; for highest non-toxic concentration (selected concentration): SH-SY5Y cells exposed for 25 h
# Experimental: SH-SY5Y human neuroblastoma cells (ATCC-CRL-2266) were seeded in DMEM/F12 (Dulbecco’s Modified Eagle Medium/Ham’s F-12 Nutrient Mixture; Thermo Fisher Scientific) with 10% heat inactivated fetal bovine serum, 50 U/mL penicillin and 50 U/mL streptomycin under a humidified atmosphere with 95% relative humidity at 37 °C at a 0.16 × 10^6 cells/mL density. Stock solutions from tested compounds (1, 2, 4 and 5) were prepared in DMSO at a 25 mM concentration and stored at −20 °C until needed. In order to select the highest non-toxic concentration, a dose-response screening was performed, where SH-SY5Y cells were exposed to the compounds for 25 h. The selected concentrations for each compound were: 75 µM final concentration for 1 and 2; 10 µM final concentration for 4 and 20 µM final concentration for 5. […] For the neuroprotection assays, the selected compounds were added to the cell media 1 hour prior to the incubation with Aβ1-42 or L-ascorbic acid/ferrous sulphate. Aβ1-42 or L-ascorbic acid/ferrous sulphate treatment was maintained for another 24 h. Aβ1-42 was prepared as 276.9 µM stock in sterile water and administrated in the medium at a 2.5 µM final concentration. Ferrous sulphate was freshly prepared as 0.36 M stock in water and added to the medium at 2.5 mM final concentration. L-ascorbic acid was freshly prepared as 80 mM stock in water and added to the medium at 5 mM final concentration. Aβ1-42 was purchased from Bachem (Torrance, CA, USA) and ferrous sulphate and L-ascorbic acid from Sigma Chemical Co (St. Louis, MO, USA).
# Cell viability was measured by using the MTT (3-(4,5-dimethylthiazol-2-yl)-2,5-diphenyl tetrazolium bromide) reduction assay. This test is based on the presence of succinate dehydrogenase enzyme in viable cells, that allows them to metabolize MTT into a formazan. After treatment, the medium was removed, and cells were washed with 1x PBS one time to remove dead cells. 200 µL of MTT solution (0.5 mg/mL) was added to each well and incubated for 2 h protected from light. Formazan precipitates were then dissolved in DMSO and absorbance measured at 570 nm. The ability to reduce MTT was expressed as a percentage of untreated control cells.
# Figure 10 Dose-response screening of compounds 1, 2, 4 and 5 on SH-SY5Y neuronal cell line. Overnight cultures were treated with a range of concentrations from 10 μM to 100 μM for 24 h and cellular viability was determined by employing the MTT reduction assay.
# Sequence of AChE of electroforus electricus (electric eel) (O42275 24-633): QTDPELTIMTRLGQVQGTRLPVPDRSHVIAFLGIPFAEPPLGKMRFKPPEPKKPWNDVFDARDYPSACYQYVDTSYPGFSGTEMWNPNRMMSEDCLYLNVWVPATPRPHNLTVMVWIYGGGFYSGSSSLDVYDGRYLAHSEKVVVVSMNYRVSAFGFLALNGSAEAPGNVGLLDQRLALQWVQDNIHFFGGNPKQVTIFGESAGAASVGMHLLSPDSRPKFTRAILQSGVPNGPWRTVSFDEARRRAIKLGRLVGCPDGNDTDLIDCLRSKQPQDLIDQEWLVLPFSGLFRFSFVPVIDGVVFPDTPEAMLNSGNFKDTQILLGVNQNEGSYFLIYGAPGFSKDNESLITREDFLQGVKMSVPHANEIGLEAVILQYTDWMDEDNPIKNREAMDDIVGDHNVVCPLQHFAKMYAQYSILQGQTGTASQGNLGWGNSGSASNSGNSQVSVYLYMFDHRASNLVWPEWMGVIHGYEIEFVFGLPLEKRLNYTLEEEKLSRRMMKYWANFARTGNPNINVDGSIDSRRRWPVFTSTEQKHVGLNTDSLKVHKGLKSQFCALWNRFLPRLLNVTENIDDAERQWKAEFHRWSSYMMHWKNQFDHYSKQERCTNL
Compound,IC50 [1] [µM],Antioxidant Activity EC50 [2],cytotoxicity on SH-SY5Y cell line [3],highest non-toxic concentration (selected concentration) [3] [µM]
"CCOC(=O)C1=C(O)C(Cc2ccccc2)NC1=O (centres unmarked) [Compound 2, Ethyl 5-benzyl-4-hydroxy-2-oxo-2,5-dihydro-1H-pyrrole-3-carboxylate]",57 ± 4,6.3 ± 0.1 µmol/µmol of DPPH,do not show (except for compound 4) cytotoxicity,75
"CCOC(=O)C1=C(O)C(C(C)C)NC1=O (centres unmarked) [Compound 1, Ethyl 4-hydroxy-5-isopropyl-2-oxo-2,5-dihydro-1H-pyrrole-3-carboxylate]",42 ± 3,10.8 ± 0.2 µmol/µmol of DPPH,do not show (except for compound 4) cytotoxicity,75
